Source: patent US10258599B2, “Compounds for use in the prevention or treatment of cancer” (SEMMELWEIS UNIVERSITY, priority 2014, dated 2019)

Legend:
[1] = tested on: catecholaminergic neurons; experiment: Shuttle box: antagonism of tetrabenazine-induced learning deficit (conditioned avoidance reflex); format: in vivo, rat
Protocol: In a modified version of the shuttle box the acquisition of a two-way conditioned avoidance reflex (CAR) was analyzed during 5 consecutive days. The rat was put in a box divided inside into two parts by a barrier with a small gate in the middle, and the animal was trained to cross the barrier under the influence of a conditioned stimulus (CS, light flash). […] One trial consisted of 10 s intertrial interval, followed by 20 s CS. The last 5 s of CS overlaped the 5 s US. At each learning session, the number of CARs, EFs and intersignal reactions (IRs) are automatically counted and evaluated by multi-way ANOVA.
Tetrabenazine-treatment (1 mg/kg s.c.) depletes at least 90% of norepinephrine and dopamine from their stores in the nerve terminals of the catecholaminergic neurons in the brain stem. Due to the weak performance of the catecholaminergic brain engine, the activation of the cortical neurons remains below the level required for the acquisition of a CAR. The learning deficit caused by tetrabenazine-treatment can be antagonized by the administration of a synthetic CAE substance or an A-type MAO inhibitor, whereas selective inhibition of B-type MAO or inhibition of the reuptake of catecholamines and/or serotonin is ineffective (Knoll et al., 1992).

MAO-B = target: T1, MAO-B (Rattus norvegicus, UniProt P19643); conditions: in vivo; cited from earlier work
T1 construct: from tissue; host or cells: brain, in vivo dosing
T1 sequence (P19643 1-520): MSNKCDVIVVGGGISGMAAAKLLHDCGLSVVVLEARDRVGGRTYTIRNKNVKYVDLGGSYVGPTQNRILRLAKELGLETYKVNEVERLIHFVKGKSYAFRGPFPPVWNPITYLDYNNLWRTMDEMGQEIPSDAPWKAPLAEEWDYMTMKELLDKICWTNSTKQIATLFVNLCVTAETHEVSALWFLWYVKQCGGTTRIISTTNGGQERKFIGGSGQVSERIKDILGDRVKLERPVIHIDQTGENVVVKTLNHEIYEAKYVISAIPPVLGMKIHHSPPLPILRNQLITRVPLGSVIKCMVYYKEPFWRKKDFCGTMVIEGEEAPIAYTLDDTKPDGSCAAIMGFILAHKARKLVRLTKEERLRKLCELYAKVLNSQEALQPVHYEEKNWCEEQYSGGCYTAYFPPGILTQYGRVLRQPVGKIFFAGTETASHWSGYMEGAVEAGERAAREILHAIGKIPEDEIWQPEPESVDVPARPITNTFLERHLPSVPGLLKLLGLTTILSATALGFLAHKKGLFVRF

[2] = shuttle box, 1 mg/kg tetrabenazine s.c.

With `CCCN[C@H](CCC)Cc1cc2ccccc2o1` [(−)-BPAP, (2R)-1-(1-benzofuran-2-yl)-N-propylpentane-2-amine] the “effect on tetrabenazine-induced learning deficit” value ([1]; 0.0001 mg/kg (FIG. 4)) was “antagonizing the tetrabenazine-induced learning deficit”, the “dose with the non-specific enhancer effect selected for the longevity study” value [1, 2] was 50 µg/kg and the “optimal dose that exerted the specific enhancer effect” value [1, 2] was 0.1 µg/kg. For the same compound, the “very high dose range effective in antagonizing the tetrabenazine-induced learning deficit (MAO-A inhibition)” value [1, 2] was 2000 to 10000 µg/kg and the MAO-B inhibitory potency (MAO-B) was “devoid of MAO-B inhibitory potency”.
